Test results published in patent publication US20250235444A1, “COMPOSITION FOR PREVENTING OR TREATING VALVULAR CALCIFICATION” (MOKPO NATIONAL UNIVERSITY INDUSTRY-ACADEMIA COOPERATION …, priority 2022, published 2025).

Tests used:
Osteopontin (OPN) = experiment: Western blot analysis of calcification marker osteopontin in calcification-induced valvular interstitial cells; format: cell-based, porcine; conditions: compared to the calcification-induced experimental group; calcification induced for 10 days; FIG. 3
Procedure: (§1) To isolate porcine valvular interstitial cells, porcine heart valves were treated with collagenase for 15 minutes, after which endothelial cells were removed and cultured again for 24 hours. The cells obtained through centrifugation are valvular interstitial cells and were cultured in DMEM (high-glucose, Gibco) medium containing 0.1% amphotericin B, 1% penicillin-streptomycin, and 5% FBS.
(§2) To induce calcification, cells were seeded at a density of 1×10^4/ml in a 96-well culture vessel, and calcification was induced for a total of 10 days. Control medium (CM) used DMEM containing 0.1% amphotericin B, 1% penicillin-streptomycin, and 5% FBS and the pro-calcifying medium (PCM) was a control medium with 2 mM NaH2PO4 added. The medium was replaced every 2 days.
(§3) To observe if anti-calcification substances inhibit calcification, 10 uM or 100 uM paquinimod or 10 uM tasquinimod were treated, and 10% DMSO (Sigma-Aldrich) was treated as a control, and then cultured in a cell incubator at 37° C. with a 5% CO2 concentration.
(§4) After seeding cells at 5×10^4/mL in a 6-well plate, calcification was induced for a total of 10 days. […]
(§5) To lyse the cells, 1×RIPA buffer was added to each well and lysed for 10 minutes. […] Protein quantification of the obtained cell lysates was measured using Bio-Rad DC protein reagent. […]

[1] = test system: RUNX2 (Runt-related transcription factor2); experiment: Western blot analysis of calcification marker RUNX2 in calcification-induced valvular interstitial cells; format: cell-based, porcine; conditions: compared to the calcification-induced experimental group; calcification induced for 10 days; FIG. 3
Procedure: as §1, §2, §3, §4, §5

[2] = test system: porcine valvular interstitial cells; experiment: Calcification of porcine valvular interstitial cells induced by NaH2PO4 (PCM), Alizarin red staining and CPC analysis; format: cell-based; conditions: pro-calcifying medium with 2 mM NaH2PO4, 10 days
Procedure: as §1
To induce calcification, cells were seeded at a density of 1×10^4/ml in a 96-well culture vessel, and calcification was induced for a total of 10 days. […]
To quantify Alizarin Red stain, after washing twice with PBS, it was fixed with cold 70% ethanol at 4° C. for 1 hour, and after washing with dH2O, the sample was treated with 10% CPC (cetylpyridinium chloride, Sigma-Aldrich) for 1 hour (shaken and in the dark), transferred to a new measuring container, and measured for absorbance at 550 nm.
Interstitial cells were isolated from porcine heart valves and the inhibitory effect of paquinimod or tasquinimod on valvular calcification was confirmed according to the concentration. Porcine valve-derived cells were induced to calcify by NaH2PO4, and the degree of valvular calcification was measured after treatment with paquinimod or tasquinimod at different concentrations under the same conditions.

Row | Structure (SMILES) | expression of osteopontin (Western blot) (Osteopontin (OPN)) | expression of RUNX2 (Western blot) [1] | degree of valvular calcification (Alizarin red staining and CPC analysis) ([2]; 10 uM or more of paquinimod (10 uM or 100 uM), FIG. 1) | degree of valvular calcification ([2]; 10 uM tasquinimod, FIG. 2)
1 | CCc1cccc2c1c(O)c(C(=O)N(CC)c1ccccc1)c(=O)n2C [paquinimod] | significantly reduced | significantly reduced | inhibition of valvular calcification in a concentration-dependent manner | –
2 | COc1cccc2c1c(O)c(C(=O)N(C)c1ccc(C(F)(F)F)cc1)c(=O)n2C [tasquinimod] | – | – | – | had an inhibitory effect on valvular calcification
